Laboratory results taken from patent publication US8173627B2, “Neuroprotective effect of solubilized UDCA in focal ischemic model” (priority 2004, dated 2012).

Experiment: HPLC bile acid analysis of plasma and brain
Assay type: in vivo, rat
Settings: after UDCA and TUDCA administration
Protocol: Rats were separated into 5 groups, and each received a single injection of vehicle (n=18), 25 mg s-UDCA/Kg (n=9), 100 mg UDCA/Kg (n=18), 400 mg UDCA/kg (n=9), and 400 mg TUDCA/kg (n=9) intravenously immediately after reperfusion.
Blood and brain were collected 1 hour after s-UDCA, TUDCA, or vehicle injection, and were assessed by HPLC for bile acid analysis. Briefly, whole blood was drawn, clotted, and centrifuged and plasma was separated and frozen. After appropriate, humane anesthesia (5% chloral hydrate) and transcardial phosphate buffer perfusion, brains were removed, flash-frozen, and stored at −70° C. Free UDCA concentrations were measured by HPLC (JASCO HPLC Bile Acids Analysis System). Bile acids were assessed by HPLC according to, for example, U.S. patent application Ser. No. 09/778,154 filed Feb. 5, 2001, the full disclosure of which is hereby incorporated by reference.

TUDCA detected in brain as well as blood: not detected
SMILES: C[C@H](CCC(=O)NCCS(=O)(=O)O)[C@H]1CC[C@H]2[C@@H]3[C@@H](O)C[C@@H]4C[C@H](O)CC[C@]4(C)[C@H]3CC[C@]12C [TUDCA, tauroursodeoxycholic acid]
